According to ChEMBL document CHEMBL4406817, “Cell-active carbazole derivatives as inhibitors of the zika virus protease” (Eur J Med Chem, 2019):
Active and inactive are the calls of the source. The calls are words filed in the database; no cut-off is given here.

Tests used:
Nonstructural protein 3 [1] = molecular target: T1, Nonstructural protein 3 (Zika virus, UniProt A0A024AXB9); experiment: Inhibition of N-terminal His-tagged Zika virus NS2B (46 to 99 residues) - NS3 (1 to 187 residues) protease domain expressed in Rosetta2-(DE3) assessed as inhibitory constant using Boc-Gly-Arg-Arg-AMC as substrate and measured for 10 mins by fluorescence based assay
T1 sequence (A0A024AXB9 whole entry, the tested form may be a part): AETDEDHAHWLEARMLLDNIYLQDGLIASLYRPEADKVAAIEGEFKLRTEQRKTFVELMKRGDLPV

Nonstructural protein 3 [2] = molecular target: T1, Nonstructural protein 3; experiment: Inhibition of N-terminal His6-tagged Zika virus NS2B (46 to 99 residues) - NS3 (1 to 187 residues) protease domain expressed in Rosetta2-(DE3) using Boc-Gly-Arg-Arg-AMC as substrate preincubated for 10 mins followed by substrate addition and measured for 6 mins by fluorescence based assay
[3] = Cytotoxicity against human HuH7 cells assessed as reduction in cell viability incubated for 48 hrs by cellTiter-Glo assay; format: cell-based, Huh-7
Zika virus [4] = experiment: Antiviral activity against Zika virus H/PF/2013 infected in human HuH7 cells assessed as reduction in viral titer incubated for 24 hrs by plague assay; format: functional, organism-based
Nonstructural protein 3 [5] = molecular target: T1, Nonstructural protein 3; experiment: (§1) Inhibition of N-terminal unlinked Zika virus NS2B (45 to 96 residues) - NS3 (1 to 177 residues) protease domain expressed in Escherichia coli Bl21(DE3) using Bz-nKRR-AMC as substrate preincubated for 15 mins followed by substrate addition and measured by fluorescence based assay
[6] = Selectivity index, ratio of CC50 for cytotoxicity against human HuH7 cells to EC50 for antiviral activity against H/PF/2013 Zika virus infected in human HuH7 cells; format: toxicity, cell-based; conditions: for selectivity ratio: HuH7 cells, read-out: Ratio CC50/EC50
Nonstructural protein 3 [7] = molecular target: T1, Nonstructural protein 3; experiment: Inhibition of N-terminal His6-tagged Zika virus NS2B (49 to 95 residues) - NS3 (1 to 170 residues) protease domain expressed in Escherichia coli Bl21(DE3) using Bz-Nle-Lys-Lys-Arg-AMC as substrate preincubated for 10 mins followed by substrate addition measured after 10 mins by fluorescence based assay
Nonstructural protein 3 [8] = molecular target: T1, Nonstructural protein 3; experiment: Inhibition of N-terminal linked Zika virus NS2B (45 to 96 residues) - NS3 (1 to 177 residues) protease domain expressed in Escherichia coli Bl21(DE3) using Bz-nKRR-AMC as substrate preincubated for 15 mins followed by substrate addition and measured by fluorescence based assay
Zika virus [9] = experiment: Antiviral activity against Zika virus; format: functional, organism-based
[10] = Selectivity index, ratio of EC50 of antiviral activity against Zika virus infected in human HuH7 cells to IC50 of inhibition of N-terminal unlinked Zika virus NS2B (45 to 96 residues) - NS3 (1 to 177 residues) protease domain expressed in Escherichia coli Bl21(DE3); format: toxicity
Nonstructural protein 3 [11] = molecular target: T1, Nonstructural protein 3; experiment: Inhibition of N-terminal His6-tagged Zika virus NS2B (45 to 96 residues) - NS3 (1 to 177 residues) protease domain expressed in Escherichia coli Bl21(DE3) using Bz-nKRR-AMC as substrate preincubated for 30 mins in presence of bZipro and measured for 60 sec over 10 mins by fluorescence based assay
Nonstructural protein 3 [12] = molecular target: T1, Nonstructural protein 3; experiment: Inhibition of N-terminal His-tagged Zika virus NS2B (49 to 95 residues) - NS3 (1 to 185 residues) protease domain expressed in Escherichia coli Bl21(DE3) using TAMRA-RRRRSAG-GXL570 as substrate preincubated for 30 mins followed by substrate addition measured after 1 hr by fluorescence based assay
[13] = Cytotoxicity against human A549 cells assessed as reduction in cell viability incubated for 42 hrs by WST-8 assay; format: cell-based
[14] = Selectivity index, ratio of EC50 of antiviral activity against Zika virus infected in human A549 cells to IC50 of inhibition of N-terminal His6-tagged Zika virus NS2B (49 to 95 residues) - NS3 (1 to 185 residues) protease domain expressed in Escherichia coli Bl21(DE3); format: toxicity
[15] = molecular target: Nonstructural protein 3 (Zika virus) (UniProt A0A024AXB9); experiment: as §1, with “Non-competitive inhibition” for “Inhibition”, “30” for “15”, “measured for every 60 sec over 12 mins” for “measured”, “Lineweaver-burk plot analysis” for “assay”
Sequence of Nonstructural protein 3 (Zika virus) (A0A024AXB9 as listed by the source): as the sequence (A0A024AXB9 whole entry, the tested form may be a part) above

[16] = Zika virus, H/PF/2013, Huh-7, 24 h, read-out: EC50

| Compound | CC50 at 48 h [3] | EC50 (Zika virus [4]; [16]) | IC50 (Nonstructural protein 3 [5]) | selectivity ratio [6] | other results |
| --- | --- | --- | --- | --- | --- |
| COc1ccc(Cl)c2sc(NC(=O)c3ccccc3NS(=O)(=O)c3ccc(C)cc3)nc12 | – | – | – | – | Ki (Nonstructural protein 3 [1]): 9 µM; IC50 (Nonstructural protein 3 [2]): 4.1 µM |
| Cn1c2ccc(Br)cc2c2cc(-c3cccc(C(=N)N)c3)ccc21 | 6.57 µM | 1.35 µM | 13.9 µM | 5.42 | – |
| CC(C)C[C@H]1C(=O)N2CCC[C@H]2[C@]2(O)O[C@](NC(=O)[C@@H]3C=C4c5cccc6[nH]c(Br)c(c56)C[C@H]4N(C)C3)(C(C)C)C(=O)N12 [BROMOCRIPTINE] | – | – | – | – | IC50 (Nonstructural protein 3 [7]): 13 µM |
| N#Cc1cccc(-c2ccc3c(c2)c2cc(-c4cccc(C#N)c4)ccc2n3Cc2cccc(C(=N)N)c2)c1 | 7.48 µM | – | 14.9 µM | – | EC50 (Zika virus [4]): Not Active |
| N=C(N)c1cccc(-c2ccc3ccc(-c4cccc(C(=N)N)c4)cc3c2)c1 | – | 4.95 µM | 32.5 µM | – | IC50 (Nonstructural protein 3 [8]): 49.5 µM |
| N#Cc1cccc(-c2ccc3c(c2)c2cc(-c4cccc(C#N)c4)ccc2n3S(=O)(=O)c2cccc(C(=N)N)c2)c1 | 3.35 µM | – | 3.5 µM | – | EC50 (Zika virus [4]): Not Active |
| CO[C@@H]1[C@@H](OC(N)=O)[C@@H](O)[C@H](Oc2ccc3c(O)c(NC(=O)c4ccc(O)c(CC=C(C)C)c4)c(=O)oc3c2C)OC1(C)C [NOVOBIOCIN] | – | – | – | – | EC50 (Zika virus [9]): 62.2 µM |
| COc1cccc(Cn2c3ccc(-c4cccc(C(=N)N)c4)cc3c3cc(-c4cccc(C(=N)N)c4)ccc32)c1 | 22.7 µM | 6.37 µM | 1.75 µM | 3.4 | Selectivity Index [10]: 1 to 10 |
| COc1cccc(S(=O)(=O)n2c3ccc(-c4cccc(C(=N)N)c4)cc3c3cc(-c4cccc(C(=N)N)c4)ccc32)c1 | > 100 µM | 23.8 µM | 0.99 µM | > 4 | Selectivity Index [10]: 1 to 10 |
| COc1cccc(S(=O)(=O)n2c3ccc(-c4cccc(C#N)c4)cc3c3cc(-c4cccc(C(=N)N)c4)ccc32)c1 | 37.9 µM | 16 µM | 0.82 µM | 2.37 | Selectivity Index [10]: 1 to 10 |
| COc1cccc(Cn2c3ccc(Br)cc3c3cc(-c4cccc(C(=N)N)c4)ccc32)c1 | 5.3 µM | 2.27 µM | 4.04 µM | 2.3 | – |
| N=C(N)c1cccc(-c2ccc3c(c2)c2cc(Br)ccc2n3S(=O)(=O)c2cccc(C(=N)N)c2)c1 | 35.7 µM | 5.9 µM | 9.19 µM | 4.2 | Selectivity Index [10]: 1 to 10 |
| COc1ccc(S(=O)(=O)n2nc(OC(=O)c3cccc(-c4ccccc4Cl)c3)cc2N)cc1 | – | – | – | – | IC50 (Nonstructural protein 3 [11]): 0.1 µM |
| N=C(N)c1cccc(-c2cccc(-c3cccc(C(=N)N)c3)c2)c1 | – | – | 38.3 µM | – | IC50 (Nonstructural protein 3 [8]): 104 µM |
| O=C1C=C/C(=N/Nc2ccc([N+](=O)[O-])cc2Cl)C=C1C(=O)Nc1cccc(Cl)c1 | – | – | – | – | IC50 (Nonstructural protein 3 [12]): 0.38 µM; CC50 at 42 h [13]: 48.8 µM; Selectivity Index [14]: 48 |
| COc1cccc(S(=O)(=O)n2c3ccc(Br)cc3c3cc(-c4cccc(C(=N)N)c4)ccc32)c1 | 5.22 µM | – | 8.1 µM | – | EC50 (Zika virus [4]): Not Active; Ratio CC50/EC50 [6]: Not Active |
| N=C(N)c1cccc(Cn2c3ccc(Br)cc3c3cc(Br)ccc32)c1 | 12.8 µM | 5.09 µM | 25.6 µM | 2.51 | – |
| Cn1c2ccc(-c3cccc(C(=N)N)c3)cc2c2cc(-c3cccc(C(=N)N)c3)ccc21 | 47.5 µM | 1.25 µM | 0.52 µM | 38 | IC50 (Nonstructural protein 3 [8]): 3.65 µM; inhibition [15]: Active; Selectivity Index [10]: 3 |
| Cn1c2ccc(-c3cccc(C#N)c3)cc2c2cc(-c3cccc(C(=N)N)c3)ccc21 | 6.25 µM | – | 1.7 µM | – | EC50 (Zika virus [4]): Not Active |
| N=C(N)c1cccc(NC(=O)Nc2cccc(C(=N)N)c2)c1 [AMICARBALIDE] | – | – | – | – | IC50 (Nonstructural protein 3 [8]): 47.6 µM |
| COc1cccc(Cn2c3ccc(-c4cccc(C#N)c4)cc3c3cc(-c4cccc(C(=N)N)c4)ccc32)c1 | 3.3 µM | 1.95 µM | 1.91 µM | 2.8 | – |
| N=C(N)c1cccc(S(=O)(=O)n2c3ccc(Br)cc3c3cc(Br)ccc32)c1 | 6.58 µM | 3.26 µM | 14.2 µM | 4.14 | – |
